Measurements as given in patent US9895346B2, “Applications of substituent benzyloxy group containing ether compounds for preparing antitumor drugs” (Sinochem Corporation, priority 2013, dated 2018).

Key:
[1] = system: bladder cancer cell line J82; assay: In vitro cell inhibition assay (crystal violet), bladder cancer J82; type: cell-based, human
From the text: (§1) In vitro Cell inhibition assay is as follows:
(§2) The human cancer cell lines used for this assay were bladder cancer J82, T24, prostate cancer LNCap, PC-3, lung cancer A549, H157, H460, H520, colon cancer HCT8, HCT116, RkO, and leukemia HL-60, etc.
(§3) In vitro cell culture technology was selected for the determination of inhibition rate bladder cancer cell lines J82 and T24, prostate cancer cell lines LNCap and PC-3, lung cancer cell lines A549, H157, H460 and H520. 1000 to 3000 cells were inoculated to 24-well plate, followed by addition of 1 mL culture medium well known to researchers in this field to each well, the cells were cultured in 5% incubator for 24 hours at 37° C., then the different concentration compounds and controls were added to each well. It should be noted that the added volume is not more than 0.5% of total volume. After completion of addition, the cells continued being cultured in incubator for one week, the culture medium was removed and washed by cold PBS of 1 mL once, and then fixed for 10 minutes at room temperature with 1% formalin, followed by wash with PBS of 1 mL. After fixation, stain was carried out with 0.1% crystal violet for 30 minutes. 0.1% crystal violet was recycled. The stained cells were washed gently with deionized water, dried at room temperature and kepted. The inhibition rate was calculated according to the foiling equation. The controls are Selumetinib (AZD6244), Gefitinib, Cisplatin. Inhibition rate=number of left cells each treatment/number of left cells of untreated control×100%

[2] = system: lung cancer cell line H520; assay: In vitro cell inhibition assay (crystal violet), lung cancer H520; type: cell-based, human
In short: (§4)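 1000-3000 cells per well grown 24 h at 37 °C, then exposed to compound for one week (vehicle ≤0.5% of volume). Cells formalin-fixed and stained with 0.1% crystal violet. Inhibition rate = remaining cells in treated wells / remaining cells in untreated control × 100%.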

[3] = system: colon cancer HCT8; assay: In vitro cell inhibition assay, colon cancer HCT8; type: cell-based, human; conditions: Homo sapiens, read-out: Inhibition rate on human cancer cells
From the text: as §1, §2

[4] = system: prostate cancer cell line PC-3; assay: In vitro cell inhibition assay (crystal violet), prostate cancer PC-3; type: cell-based, human
From the text: as §1, §2, §3

[5] = system: lung cancer cell line H460; assay: In vitro cell inhibition assay (crystal violet), lung cancer H460; type: cell-based, human
In short: as §4

[6] = system: prostate cancer cell line LNCap; assay: In vitro cell inhibition assay (crystal violet), prostate cancer LNCap; type: cell-based, human
From the text: as §1, §2, §3

[7] = system: bladder cancer cell line T24; assay: In vitro cell inhibition assay (crystal violet), bladder cancer T24; type: cell-based, human
From the text: as §1, §2, §3

[8] = system: lung cancer cell line A549; assay: In vitro cell inhibition assay (crystal violet), lung cancer A549; type: cell-based, human
In short: as §4

[9] = system: colon cancer RkO; assay: In vitro cell inhibition assay, colon cancer RkO; type: cell-based, human; conditions: Homo sapiens, read-out: Inhibition rate on human cancer cells
From the text: as §1, §2

[10] = system: lung cancer cell line H157; assay: In vitro cell inhibition assay (crystal violet), lung cancer H157; type: cell-based, human
From the text: as §1, §2, §3

[11] = system: colon cancer HCT116; assay: In vitro cell inhibition assay, colon cancer HCT116; type: cell-based, human; conditions: Homo sapiens, read-out: Inhibition rate on human cancer cells
From the text: as §1, §2

[12] = system: human leukemia HL-60 cells; assay: Proliferation inhibition of human leukemia HL-60 cells, MTT method; type: cell-based; conditions: 48 h incubation, OPTI-MEM medium
Description: The inhibition rate of human leukemia HL-60 cells was evaluated by regular MTT method. The human leukemia HL-60 cells were picked up from cell incubator, after washed for twice using PBS, cells were digested by 0.25% trypsin, and then add medium to terminate the digestion. After cells were collected using centrifuge and re-suspended, counting cells under inverted microscope and adding medium to make a density which was 5×10^4 cells/mL. After 100 μL aliquots were added to each well of 96-well microtiter plates, cells were cultured in 5% incubator for overnight at 37° C., then the different concentration compounds were added to each well. After incubation for 48 h, MTT solution was added to each well and plates were then incubated for 4 h. The MTT tetrazolium was reduced to formazan by living cells. Then the formazan crystals were dissolved though adding DMSO to each well. The absorbance was read at 570 nm with a microplate reader.

Molecule: Cn1cnc2c(F)c(Nc3ccc(Br)cc3Cl)c(C(=O)NOCCO)cc21 [Selumetinib, reference compound]
- inhibition at 5 µM ([1]; Homo sapiens, J82, 5.0 μM, read-out: Inhibition rate on human cancer cells): 70%
- inhibition at 5 µM ([2]; Homo sapiens, NCI-H520, H520, 5.0 μM, read-out: Inhibition rate on human cancer cells): 20%
- inhibition at 1 µM ([3]; HCT 8, 1.0 μM): 20%
- inhibition at 2.5 µM ([3]; HCT 8, 2.5 μM): 40%
- inhibition at 5 µM ([3]; HCT 8, 5.0 μM): 50%
- inhibition at 5 µM ([4]; Homo sapiens, PC-3, 5.0 μM, read-out: Inhibition rate on human cancer cells): 0%
- inhibition at 0.25 µM ([5]; Homo sapiens, NCI-H460, H460, 0.25 μM, read-out: Inhibition rate on human cancer cells): 0%
- inhibition at 0.5 µM ([5]; Homo sapiens, NCI-H460, H460, 0.5 μM, read-out: Inhibition rate on human cancer cells): 0%
- inhibition at 1 µM ([5]; Homo sapiens, NCI-H460, H460, 1.0 μM, read-out: Inhibition rate on human cancer cells): 0%
- inhibition at 2.5 µM ([5]; Homo sapiens, NCI-H460, H460, 2.5 μM, read-out: Inhibition rate on human cancer cells): 0%
- inhibition at 5 µM ([5]; Homo sapiens, NCI-H460, H460, 5.0 μM, read-out: Inhibition rate on human cancer cells): 60%
- inhibition at 5 µM ([6]; Homo sapiens, 5.0 μM, read-out: Inhibition rate on human cancer cells): 20%
- inhibition at 5 µM ([7]; Homo sapiens, T24, 5.0 μM, read-out: Inhibition rate on human cancer cells): 70%
- inhibition at 0.25 µM ([8]; Homo sapiens, A549, 0.25 μM, read-out: Inhibition rate on human cancer cells): 0%
- inhibition at 0.5 µM ([8]; Homo sapiens, A549, 0.5 μM, read-out: Inhibition rate on human cancer cells): 0%
- inhibition at 1 µM ([8]; Homo sapiens, A549, 1.0 μM, read-out: Inhibition rate on human cancer cells): 0%
- inhibition at 2.5 µM ([8]; Homo sapiens, A549, 2.5 μM, read-out: Inhibition rate on human cancer cells): 0%
- inhibition at 5 µM ([8]; Homo sapiens, A549, 5.0 μM, read-out: Inhibition rate on human cancer cells): 10%
- inhibition at 0.25 µM ([9]; 0.25 μM): 30%
- inhibition at 0.5 µM ([9]; 0.5 μM): 80%
- inhibition at 1 µM ([9]; 1.0 μM): 85%
- inhibition at 2.5 µM ([9]; 2.5 μM): 90%
- inhibition at 5 µM ([9]; 5.0 μM): 95%
- inhibition at 5 µM ([10]; Homo sapiens, NCI-H157, H157, 5.0 μM, read-out: Inhibition rate on human cancer cells): 20%
- inhibition at 0.25 µM ([11]; HCT 116, 0.25 μM): 50%
- inhibition at 0.5 µM ([11]; HCT 116, 0.5 μM): 75%
- inhibition at 1 µM ([11]; HCT 116, 1.0 μM): 80%
- inhibition at 2.5 µM ([11]; HCT 116, 2.5 μM): 85%
- inhibition at 5 µM ([11]; HCT 116, 5.0 μM): 90%

Molecule: jiaxiangjunzhi [Compound 28-5]
- Proliferation inhibitory effect on human leukemia HL-60 cell (%) ([12]; concentration 1 μM): 31.7%
- Proliferation inhibitory effect on human leukemia HL-60 cell (%) ([12]; concentration 10 μM): 59.3%
- Proliferation inhibitory effect on human leukemia HL-60 cell (%) ([12]; concentration 100 μM): 73.8%
- Inhibition rate on human cancer cells ([1]; J82, 1.0 μM): 80%
- Inhibition rate on human cancer cells ([1]; J82, 2.5 μM): 100%
- Inhibition rate on human cancer cells ([1]; J82, 5.0 μM): 100%
- Inhibition rate on human cancer cells ([2]; H520, 0.25 μM): 70%
- Inhibition rate on human cancer cells ([2]; H520, 0.5 μM): 80%
- Inhibition rate on human cancer cells ([2]; H520, 1.0 μM): 90%
- Inhibition rate on human cancer cells ([2]; H520, 2.5 μM): 100%
- Inhibition rate on human cancer cells ([2]; H520, 5.0 μM): 100%
- Inhibition rate on human cancer cells ([4]; PC-3, 1.0 μM): 100%
- Inhibition rate on human cancer cells ([4]; PC-3, 2.5 μM): 100%
- Inhibition rate on human cancer cells ([4]; PC-3, 5.0 μM): 100%
- Inhibition rate on human cancer cells ([5]; H460, 0.5 μM): 100%
- Inhibition rate on human cancer cells ([5]; H460, 1.0 μM): 100%
- Inhibition rate on human cancer cells ([5]; H460, 2.5 μM): 100%
- Inhibition rate on human cancer cells ([5]; H460, 5.0 μM): 100%
- Inhibition rate on human cancer cells ([6]; 1.0 μM): 100%
- Inhibition rate on human cancer cells ([6]; 2.5 μM): 100%
- Inhibition rate on human cancer cells ([6]; 5.0 μM): 100%
- Inhibition rate on human cancer cells ([7]; T24, 0.25 μM): 100%
- Inhibition rate on human cancer cells ([7]; T24, 0.5 μM): 100%
- Inhibition rate on human cancer cells ([7]; T24, 1.0 μM): 100%
- Inhibition rate on human cancer cells ([7]; T24, 2.5 μM): 100%
- Inhibition rate on human cancer cells ([7]; T24, 5.0 μM): 100%
- Inhibition rate on human cancer cells ([8]; A549, 1.0 μM): 80%
- Inhibition rate on human cancer cells ([8]; A549, 2.5 μM): 100%
- Inhibition rate on human cancer cells ([8]; A549, 5.0 μM): 100%
- Inhibition rate on human cancer cells ([10]; H157, 0.5 μM): 100%
- Inhibition rate on human cancer cells ([10]; H157, 1.0 μM): 100%
- Inhibition rate on human cancer cells ([10]; H157, 2.5 μM): 100%
- Inhibition rate on human cancer cells ([10]; H157, 5.0 μM): 100%
